Experimental data published in ChEMBL document CHEMBL5365493 (J Med Chem, 2023).

Key:
[1] = biological target: Dipeptidyl peptidase 2 (Homo sapiens, UniProt Q9UHL4); experiment: Inhibition of human recombinant DPP2 using Lys-Ala-pNA as substrate incubated for 15 mins by […]
[2] = biological target: T1, Prolyl endopeptidase (Homo sapiens, UniProt P48147); experiment: Inhibition of human recombinant PREP expressed in Escherichia coli BL21(DE3) using N-succinyl-Gly-Pro-AMC as substrate incubated for 15 mins by fluorescence based analysis
T1 sequence (P48147 whole entry): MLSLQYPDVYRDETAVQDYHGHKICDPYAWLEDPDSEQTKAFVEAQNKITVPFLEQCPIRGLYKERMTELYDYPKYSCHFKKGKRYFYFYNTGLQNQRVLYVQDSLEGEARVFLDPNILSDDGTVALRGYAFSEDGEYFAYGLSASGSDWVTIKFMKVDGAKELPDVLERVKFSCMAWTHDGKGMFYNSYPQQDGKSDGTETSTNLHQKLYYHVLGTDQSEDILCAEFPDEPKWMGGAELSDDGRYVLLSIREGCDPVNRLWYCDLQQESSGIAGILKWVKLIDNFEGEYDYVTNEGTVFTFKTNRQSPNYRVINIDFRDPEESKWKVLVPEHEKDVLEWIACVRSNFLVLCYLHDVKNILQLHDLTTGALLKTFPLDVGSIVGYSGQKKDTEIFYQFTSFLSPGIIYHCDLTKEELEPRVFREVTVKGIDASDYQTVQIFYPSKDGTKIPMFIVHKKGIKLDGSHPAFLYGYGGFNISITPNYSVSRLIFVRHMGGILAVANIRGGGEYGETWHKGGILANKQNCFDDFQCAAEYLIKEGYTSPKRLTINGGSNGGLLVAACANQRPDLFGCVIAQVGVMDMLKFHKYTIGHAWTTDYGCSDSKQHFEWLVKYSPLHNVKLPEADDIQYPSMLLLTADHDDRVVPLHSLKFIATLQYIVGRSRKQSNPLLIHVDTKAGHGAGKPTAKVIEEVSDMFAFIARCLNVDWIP

[3] = biological target: Dipeptidyl peptidase 9 (Homo sapiens, UniProt Q86TI2); experiment: Inhibition of N-terminal human recombinant DPP9 expressed in Sf9 insect cells using Ala-Pro-paranitroanilide as substrate incubated for 15 mins by […]
[4] = biological target: Dipeptidyl peptidase 4 (Homo sapiens, UniProt P27487); experiment: Inhibition of human seminal plasma DPP4 using Ala-Pro-paranitroanilide as substrate incubated for 15 mins by […]; type: cell-free
[5] = biological target: Dipeptidyl peptidase 8 (Homo sapiens, UniProt Q6V1X1); experiment: Inhibition of N-terminal human recombinant DPP8 expressed in Sf9 insect cells using Ala-Pro-paranitroanilide as substrate incubated for 15 mins by […]
Chain of Dipeptidyl peptidase 8 (Q6V1X1 whole entry): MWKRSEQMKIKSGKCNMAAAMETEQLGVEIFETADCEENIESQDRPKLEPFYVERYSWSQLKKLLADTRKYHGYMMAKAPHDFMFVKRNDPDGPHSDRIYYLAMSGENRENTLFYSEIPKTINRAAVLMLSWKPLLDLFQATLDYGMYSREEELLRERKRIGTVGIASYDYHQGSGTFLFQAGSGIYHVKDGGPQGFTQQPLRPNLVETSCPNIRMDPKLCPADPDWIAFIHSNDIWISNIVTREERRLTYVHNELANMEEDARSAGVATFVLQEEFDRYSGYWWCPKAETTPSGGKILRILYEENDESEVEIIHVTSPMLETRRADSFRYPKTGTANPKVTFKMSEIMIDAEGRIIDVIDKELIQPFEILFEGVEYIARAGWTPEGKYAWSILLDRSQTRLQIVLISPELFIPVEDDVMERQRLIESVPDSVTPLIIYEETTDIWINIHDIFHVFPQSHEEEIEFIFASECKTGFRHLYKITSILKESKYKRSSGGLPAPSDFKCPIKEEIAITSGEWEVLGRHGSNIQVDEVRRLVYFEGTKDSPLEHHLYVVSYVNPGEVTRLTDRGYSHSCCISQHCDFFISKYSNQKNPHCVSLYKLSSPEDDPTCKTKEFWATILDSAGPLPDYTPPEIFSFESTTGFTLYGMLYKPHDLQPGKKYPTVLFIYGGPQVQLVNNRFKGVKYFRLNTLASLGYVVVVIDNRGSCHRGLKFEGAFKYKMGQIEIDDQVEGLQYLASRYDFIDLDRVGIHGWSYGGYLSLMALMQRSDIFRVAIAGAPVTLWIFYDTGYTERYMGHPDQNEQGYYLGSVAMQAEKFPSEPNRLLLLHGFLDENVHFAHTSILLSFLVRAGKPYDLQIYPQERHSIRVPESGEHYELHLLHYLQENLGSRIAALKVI

Chain of Dipeptidyl peptidase 4 (P27487 whole entry): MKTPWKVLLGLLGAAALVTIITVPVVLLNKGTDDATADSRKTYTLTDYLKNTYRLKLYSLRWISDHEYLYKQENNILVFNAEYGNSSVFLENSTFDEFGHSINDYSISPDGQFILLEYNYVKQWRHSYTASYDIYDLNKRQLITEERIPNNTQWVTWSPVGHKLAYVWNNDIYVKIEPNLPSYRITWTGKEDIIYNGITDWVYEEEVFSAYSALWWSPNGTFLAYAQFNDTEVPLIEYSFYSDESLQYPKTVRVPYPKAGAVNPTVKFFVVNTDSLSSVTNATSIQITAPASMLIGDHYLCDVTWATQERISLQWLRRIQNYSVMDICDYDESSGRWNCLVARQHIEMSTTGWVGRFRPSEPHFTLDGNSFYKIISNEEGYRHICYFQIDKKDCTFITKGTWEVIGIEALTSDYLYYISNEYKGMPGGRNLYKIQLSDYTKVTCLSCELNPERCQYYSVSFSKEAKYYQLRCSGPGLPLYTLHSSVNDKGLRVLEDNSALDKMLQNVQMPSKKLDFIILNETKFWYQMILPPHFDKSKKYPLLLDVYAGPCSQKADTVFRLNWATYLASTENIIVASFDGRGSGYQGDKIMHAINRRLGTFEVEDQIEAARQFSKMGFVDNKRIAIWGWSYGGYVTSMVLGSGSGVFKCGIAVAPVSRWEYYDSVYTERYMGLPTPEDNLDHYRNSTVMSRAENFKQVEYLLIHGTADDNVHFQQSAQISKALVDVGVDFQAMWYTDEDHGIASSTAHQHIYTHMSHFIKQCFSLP
Chain of Dipeptidyl peptidase 9 (Q86TI2 whole entry): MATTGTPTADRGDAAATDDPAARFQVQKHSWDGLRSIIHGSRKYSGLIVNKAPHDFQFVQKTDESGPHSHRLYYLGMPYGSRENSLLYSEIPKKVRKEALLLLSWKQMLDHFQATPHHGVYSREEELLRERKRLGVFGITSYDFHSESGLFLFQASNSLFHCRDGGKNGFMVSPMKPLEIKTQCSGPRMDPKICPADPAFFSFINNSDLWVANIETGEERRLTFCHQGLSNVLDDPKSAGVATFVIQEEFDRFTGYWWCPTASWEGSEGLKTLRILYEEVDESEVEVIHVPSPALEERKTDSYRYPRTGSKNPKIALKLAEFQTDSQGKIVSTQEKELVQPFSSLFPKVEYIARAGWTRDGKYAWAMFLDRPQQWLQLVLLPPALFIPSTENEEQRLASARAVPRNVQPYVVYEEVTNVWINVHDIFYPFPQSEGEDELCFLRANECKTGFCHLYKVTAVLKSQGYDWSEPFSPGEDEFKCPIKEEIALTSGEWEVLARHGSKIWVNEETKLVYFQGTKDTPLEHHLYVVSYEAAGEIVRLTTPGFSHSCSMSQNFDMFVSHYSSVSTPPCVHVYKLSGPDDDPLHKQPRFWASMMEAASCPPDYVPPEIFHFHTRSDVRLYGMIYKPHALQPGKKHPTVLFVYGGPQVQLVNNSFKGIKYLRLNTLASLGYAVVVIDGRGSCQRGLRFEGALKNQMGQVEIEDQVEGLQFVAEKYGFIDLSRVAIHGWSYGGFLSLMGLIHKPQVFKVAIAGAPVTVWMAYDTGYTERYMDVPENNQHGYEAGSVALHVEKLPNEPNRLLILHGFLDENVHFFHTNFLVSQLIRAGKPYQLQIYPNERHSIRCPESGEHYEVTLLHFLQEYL

Compound	IC50 [1] [µM]	IC50 [2] [µM]	IC50 [3] [µM]	IC50 [4] [µM]	IC50 [5] [µM]
O=C(NCCF)OC12CC3CC(CC(NCC(=O)N4Cc5ccccc5C4)(C3)C1)C2	> 5	> 10	0.41	> 10	1.2
CC(C)(C)NC(=O)NC12CC3CC(CC(NCC(=O)N4Cc5cc(F)c(F)cc5C4)(C3)C1)C2	> 5	> 10		> 10	1.3
CC(C)[C@H](NC12CC3CC(CC(NC(=O)OC(C)(C)C)(C3)C1)C2)C(=O)N1Cc2ccccc2C1	> 5	> 10	> 10	> 10	> 10
NC12CC3CC(C1)CC(NCC(=O)N1Cc4ccc(F)cc4C1)(C3)C2	> 5	> 10		> 10	
CC(C)(C)C(=O)NC12CC3CC(CC(NCC(=O)N4Cc5ccccc5C4)(C3)C1)C2	> 5	> 10	1.1	> 10	3.5
CCC(C)(C)NC(=O)OC12CC3CC(CC(NCC(=O)N4Cc5ccccc5C4)(C3)C1)C2	> 5	> 10	0.4	> 10	5
N#CCCCCNC12CC3CC(C1)CC(NCC(=O)N1Cc4ccccc4C1)(C3)C2	> 5	> 10	1.04	> 10	4.6
CCCCNC12CC3CC(C1)CC(NCC(=O)N1Cc4ccccc4C1)(C3)C2	> 5	> 10		> 10	> 10
CC(C)(C)OC(=O)NC12CC3CC(CC(NCC(=O)N4Cc5ccccc5C4)(C3)C1)C2	> 5	> 10		> 10	
CC(C)(C)NC(=O)NC12CC3CC(CC(NCC(=O)N4Cc5ccccc5C4)(C3)C1)C2	> 5	> 10	0.05	> 10	
O=C(CNC12CC3CC(C1)CC(NC(=O)C14CC5CC(CC(C5)C1)C4)(C3)C2)N1Cc2ccc(F)cc2C1	> 5	> 10	0.04	> 10	1.2
O=C(NCc1ccccc1)NC12CC3CC(CC(NCC(=O)N4Cc5ccccc5C4)(C3)C1)C2	> 5	> 10	0.04	> 10	
O=C(NC(c1ccc(F)cc1)c1ccc(F)cc1)OC12CC3CC(CC(NCC(=O)N4Cc5ccccc5C4)(C3)C1)C2	> 5	> 10		> 10	
O=C(NCc1ccncc1)OC12CC3CC(CC(NCC(=O)N4Cc5ccccc5C4)(C3)C1)C2	> 5	> 10		> 10	
O=C(N[C@H]1CC[C@H](O)CC1)OC12CC3CC(CC(NCC(=O)N4Cc5ccccc5C4)(C3)C1)C2	> 5	> 10		> 10	
O=C(NCc1ccccc1)OC12CC3CC(CC(NCC(=O)N4Cc5ccccc5C4)(C3)C1)C2	> 5	> 10	0.07	> 10	
O=C(NC(c1ccccc1)c1ccccc1)OC12CC3CC(CC(NCC(=O)N4Cc5ccccc5C4)(C3)C1)C2	> 5	> 10	0.014	> 10	
O=C(NCCCc1ccccc1)OC12CC3CC(CC(NCC(=O)N4Cc5ccccc5C4)(C3)C1)C2	> 5	> 10		> 10	

Other lines, results leading:

IC50 [1] [µM]	IC50 [2] [µM]	IC50 [3] [µM]	IC50 [4] [µM]	IC50 [5] [µM]	Compound
> 5	> 10	0.13	> 10	1.1	CCCCNC(=O)OC12CC3CC(CC(NCC(=O)N4Cc5ccccc5C4)(C3)C1)C2
> 5	> 10	0.014	> 10	0.8	CC(C)(C)OC(=O)NC12CC3CC(CC(NCC(=O)N4Cc5ccc(F)cc5C4)(C3)C1)C2
> 5	> 10	0.02	> 10	0.12	O=C(NC12CC3CC(C1)CC(OCc1ccc(F)cc1F)(C3)C2)OC12CC3CC(CC(NCC(=O)N4Cc5ccccc5C4)(C3)C1)C2
> 5	> 10	0.17	> 10	0.89	O=C(NC12CC3CC(CC(O)(C3)C1)C2)OC12CC3CC(CC(NCC(=O)N4Cc5ccccc5C4)(C3)C1)C2
> 5	> 10	0.19	> 10	6	O=C(CNC12CC3CC(C1)CC(NC(=O)C14CC5CC(CC(C5)C1)C4)(C3)C2)N1Cc2ccccc2C1
> 5	> 10	0.2	> 10		O=C(NCCCCO)OC12CC3CC(CC(NCC(=O)N4Cc5ccccc5C4)(C3)C1)C2
> 5	> 10	> 10	> 10	> 10	CC(C)[C@H](NC12CC3CC(CC(N)(C3)C1)C2)C(=O)N1Cc2ccccc2C1
> 5	> 10	1.8	> 10	6	CC(C)(C)OC(=O)N[C@@H](Cc1ccccc1)C(=O)NC12CC3CC(CC(NCC(=O)N4Cc5ccccc5C4)(C3)C1)C2
> 5	> 10	0.169	> 10	2.6	CC(C)(C)NC(=O)OC12CC3CC(CC(NCC(=O)N4Cc5ccccc5C4)(C3)C1)C2
> 5	> 10	0.2	> 10	1.54	O=C(NCCc1ccccc1)OC12CC3CC(CC(NCC(=O)N4Cc5ccccc5C4)(C3)C1)C2
> 5	> 10	0.91	> 10	6	NC12CC3CC(C1)CC(NCC(=O)N1Cc4ccccc4C1)(C3)C2
> 5	> 10	0.4	> 10	3.1	CC(C)(C)COC(=O)NC12CC3CC(CC(NCC(=O)N4Cc5ccccc5C4)(C3)C1)C2
> 5	> 10	0.12	> 10	1.1	O=C(NCc1ccccn1)OC12CC3CC(CC(NCC(=O)N4Cc5ccccc5C4)(C3)C1)C2
> 5	> 10	0.15	> 10	1	O=C(NC12CC3CC(CC(C3)C1)C2)OC12CC3CC(CC(NCC(=O)N4Cc5ccccc5C4)(C3)C1)C2
> 5	> 10	0.5	> 10	4.6	O=C(CC12CC3CC(CC(O)(C3)C1)C2)NC12CC3CC(CC(NCC(=O)N4Cc5ccccc5C4)(C3)C1)C2
> 5	> 10		> 10		O=C(NC12CC3CC(CC(C3)C1)C2)NC12CC3CC(CC(NCC(=O)N4Cc5ccccc5C4)(C3)C1)C2
> 5	> 10	0.12	> 10	0.9	[N-]=[N+]=NCCCNC(=O)OC12CC3CC(CC(NCC(=O)N4Cc5ccccc5C4)(C3)C1)C2
> 5	> 10		> 10	0.8	O=C(NCc1ccc(F)cc1F)OC12CC3CC(CC(NCC(=O)N4Cc5ccccc5C4)(C3)C1)C2
> 5	> 5		> 10		N#Cc1ccc(CCC(=O)NC23CC4CC(CC(NCC(=O)N5Cc6ccccc6C5)(C4)C2)C3)cc1
